Assay results published in ChEMBL document CHEMBL5143690, “Identification of nitrofuranylchalcone tethered benzoxazole-2-amines as potent inhibitors of drug resistant Mycobacterium tuberculosis demonstrating bactericidal efficacy” (Bioorg Med Chem, 2022).
Converted amounts (≈) assume the structure as drawn. The source made the active and inactive calls. The calls are words filed in the database; no cut-off is given here.

Columns and labels:
[1] = system: Mycobacterium tuberculosis; experiment: Antimycobacterial activity against Mycobacterium tuberculosis H37Rv ATCC 27294 assessed as inhibition of bacterial growth measured after 7 days by resazurin microtitre assay; format: functional; details: H37Rv ATCC 27294, 168 h, time 7 day
Escherichia coli = experiment: Antibacterial activity against Escherichia coli ATCC 25922 assessed as reduction in bacterial growth incubated for 16 to 18 hrs by microtiter plate assay; format: functional; details: time 16-18 hrs
Staphylococcus aureus = experiment: Antibacterial activity against Staphylococcus aureus ATCC 29213 assessed as reduction in bacterial growth incubated for 16 to 18 hrs by microtiter plate assay; format: functional; details: time 16-18 hrs
Klebsiella pneumoniae = experiment: Antibacterial activity against Klebsiella pneumoniae BAA 1705 assessed as reduction in bacterial growth incubated for 16 to 18 hrs by microtiter plate assay; format: functional; details: time 16-18 hrs
Acinetobacter baumannii = experiment: Antibacterial activity against Acinetobacter baumannii BAA 1605 assessed as reduction in bacterial growth incubated for 16 to 18 hrs by microtiter plate assay; format: functional; details: time 16-18 hrs
Pseudomonas aeruginosa = experiment: Antibacterial activity against Pseudomonas aeruginosa ATCC 27853 assessed as reduction in bacterial growth incubated for 16 to 18 hrs by microtiter plate assay; format: functional; details: time 16-18 hrs
[2] = system: Mycobacteroides abscessus; experiment: Antimycobacterial activity against Mycobacterium abscessus ATCC 19977 assessed as inhibition of bacterial growth after 48 hrs by resazurin microtitre assay; format: functional
[3] = system: Mycolicibacterium fortuitum; experiment: Antimycobacterial activity against Mycobacterium fortuitum ATCC 6841 assessed as inhibition of bacterial growth after 48 hrs by resazurin microtitre assay; format: functional
Mycobacteroides chelonae = experiment: Antimycobacterial activity against Mycobacterium chelonae ATCC 6841 assessed as inhibition of bacterial growth after 48 hrs by resazurin microtitre assay; format: functional
[4] = Cytotoxicity against African green monkey Vero cells assessed as reduction in cell viability measured after 72 hrs by MTT assay; format: toxicity, cell-based; details: chlorocebus sabaeus
[5] = Selectivity index, ratio of CC50 for African green monkey Vero cells to MIC for Mycobacterium tuberculosis H37Rv ATCC 27294; format: toxicity; details: read-out: Selectivity Index
[6] = system: Mycobacterium tuberculosis; experiment: Antimycobacterial activity against Mycobacterium tuberculosis H37Rv at 1 X MIC measured after 5 to 7 days by time kill assay; format: functional; details: time 5-7 day
[7] = system: Mycobacterium tuberculosis; experiment: Antimycobacterial activity against Mycobacterium tuberculosis H37Rv at 10 X MIC measured after 5 to 7 days by time kill assay; format: functional; details: time 5-7 day
[8] = system: Mycobacterium tuberculosis; experiment: Antimycobacterial activity against Mycobacterium tuberculosis H37Rv assessed as minimum bactericidal concentration by time kill assay; format: functional
[9] = Metabolic stability in human liver microsomes assessed as elimination rate constant at 1 uM preincubated for 5 mins in presence of NADPH incubated up to 60 mins by LC-MS/MS analysis; format: ADME, Microsome; details: time 65 min
[10] = Metabolic stability in human liver microsomes assessed as half life at 1 uM preincubated for 5 mins in presence of NADPH incubated up to 60 mins by LC-MS/MS analysis; format: ADME, Microsome; details: time 65 min
[11] = Metabolic stability in human liver microsomes assessed as intrinsic clearance at 1 uM preincubated for 5 mins in presence of NADPH incubated up to 60 mins by LC-MS/MS analysis; format: ADME, Microsome; details: time 65 min, read-out: CLH
[12] = Aqueous solubility in phosphate buffer at pH 7.4 incubated for 4 hrs by HPLC analysis; format: physicochemical
[13] = system: Mycobacterium tuberculosis; experiment: Antimycobacterial activity against Mycobacterium tuberculosis H37Rv assessed as reduction in log10CFU at 1XMIC measured after 5 to 6 days by time kill assay; format: functional, organism-based; details: time 5-6 day
[14] = system: Mycobacterium tuberculosis; experiment: Antimycobacterial activity against Mycobacterium tuberculosis H37Rv assessed as reduction in log10CFU at 10 X MIC measured after 5 to 6 days by time kill assay; format: functional, organism-based; details: time 5-6 day

| SMILES | MIC [1] | MIC (Escherichia coli) | MIC (Staphylococcus aureus) | MIC (Klebsiella pneumoniae) | MIC (Acinetobacter baumannii) | MIC (Pseudomonas aeruginosa) | MIC [2] | MIC [3] | MIC (Mycobacteroides chelonae) | CC50 at 72 h [4] | selectivity ratio [5] | Activity [6] | Activity [7] | MBC [8] | k el at 1 h, 1 µM [9] | half-life at 1 µM [10] | microsomal CLint at 1 µM [11] | solubility at 4 h [12] | Activity [13] | Activity [14] |
| --- | --- | --- | --- | --- | --- | --- | --- | --- | --- | --- | --- | --- | --- | --- | --- | --- | --- | --- | --- | --- |
| COc1ccc(C(=O)/C=C/c2ccc([N+](=O)[O-])o2)cc1Nc1nc2ccccc2o1 | 0.25 µg/mL (≈ 0.617 µM) | > 64 µg/mL | 8 µg/mL (≈ 19.7 µM) | > 64 µg/mL | > 64 µg/mL | > 64 µg/mL | > 64 µg/mL | > 64 µg/mL | > 64 µg/mL | 5 µg/mL (≈ 12.3 µM) | < 10 | – | – | – | – | – | – | – | – | – |
| O=C(/C=C/c1ccc([N+](=O)[O-])o1)c1ccc(Nc2nc3cc(Cl)ccc3o2)cc1 | 0.03 µg/mL (≈ 0.0732 µM) | > 64 µg/mL | 4 µg/mL (≈ 9.76 µM) | > 64 µg/mL | > 64 µg/mL | > 64 µg/mL | > 64 µg/mL | > 64 µg/mL | > 64 µg/mL | 5 µg/mL (≈ 12.2 µM) | 160 | 100% | 100% | 0.03 µg/mL (≈ 0.0732 µM) | 0.000333 s⁻¹ | 34.6 min | 38.5 µL/min/mg | 2.5 µg/mL (≈ 6.1 µM) | – | – |
| O=C(/C=C/c1ccc([N+](=O)[O-])o1)c1cccc(Nc2nc3ccccc3o2)c1 | 0.06 µg/mL (≈ 0.16 µM) | > 64 µg/mL | 16 µg/mL (≈ 42.6 µM) | > 64 µg/mL | > 64 µg/mL | > 64 µg/mL | > 64 µg/mL | > 64 µg/mL | > 64 µg/mL | 5 µg/mL (≈ 13.3 µM) | 80 | – | – | – | – | – | – | – | – | – |
| CO[C@H]1/C=C/O[C@@]2(C)Oc3c(C)c(O)c4c(O)c(c(/C=N/N5CCN(C)CC5)c(O)c4c3C2=O)NC(=O)/C(C)=C\C=C\[C@H](C)[C@H](O)[C@@H](C)[C@@H](O)[C@@H](C)[C@H](OC(C)=O)[C@@H]1C [RIFAMPIN] | 0.03 µg/mL (≈ 0.0365 µM) | – | – | – | – | – | – | – | – | – | – | – | – | – | – | – | – | – | Active | Active |
| Cc1ccc2oc(Nc3ccc(C(=O)/C=C/c4ccc([N+](=O)[O-])o4)cc3)nc2c1 | 0.06 µg/mL (≈ 0.154 µM) | > 64 µg/mL | 4 µg/mL (≈ 10.3 µM) | > 64 µg/mL | > 64 µg/mL | > 64 µg/mL | > 64 µg/mL | > 64 µg/mL | > 64 µg/mL | 5 µg/mL (≈ 12.8 µM) | 80 | – | – | – | – | – | – | – | – | – |
| O=C(/C=C/c1ccc([N+](=O)[O-])o1)c1ccc(Nc2nc3cc([N+](=O)[O-])ccc3o2)cc1 | 0.03 µg/mL (≈ 0.0714 µM) | > 64 µg/mL | 4 µg/mL (≈ 9.52 µM) | > 64 µg/mL | > 64 µg/mL | > 64 µg/mL | > 64 µg/mL | > 64 µg/mL | > 64 µg/mL | 5 µg/mL (≈ 11.9 µM) | > 800 | – | – | – | – | – | – | – | Active | Active |
| O=C(/C=C/c1ccc([N+](=O)[O-])o1)c1ccc(Nc2nc3ccccc3o2)cc1 | 0.12 µg/mL (≈ 0.32 µM) | > 64 µg/mL | 4 µg/mL (≈ 10.7 µM) | > 64 µg/mL | > 64 µg/mL | > 64 µg/mL | > 64 µg/mL | > 64 µg/mL | > 64 µg/mL | 5 µg/mL (≈ 13.3 µM) | 40 | – | – | – | – | – | – | – | Active | Active |
| CC(C)(C)c1ccc2oc(Nc3ccc(C(=O)/C=C/c4ccc([N+](=O)[O-])o4)cc3)nc2c1 | 0.5 µg/mL (≈ 1.16 µM) | > 64 µg/mL | 8 µg/mL (≈ 18.5 µM) | > 64 µg/mL | > 64 µg/mL | > 64 µg/mL | > 64 µg/mL | > 64 µg/mL | > 64 µg/mL | 5 µg/mL (≈ 11.6 µM) | < 10 | – | – | – | – | – | – | – | – | – |
| O=C(/C=C/c1cccc([N+](=O)[O-])c1)c1ccc(Nc2nc3ccccc3o2)cc1 | > 64 µg/mL | > 64 µg/mL | > 64 µg/mL | > 64 µg/mL | > 64 µg/mL | > 64 µg/mL | > 64 µg/mL | > 64 µg/mL | > 64 µg/mL | – | – | – | – | – | – | – | – | – | – | – |
